Read-outs that look alike come from different tables or passages of the source. Non-standard residues stand in square brackets, D forms with d. Residues, ends and D or L forms follow the SMILES beside them. *: point of attachment. pY = N[C@@H](Cc1ccc(OP(=O)(O)O)cc1)C(=O)O; Caffeoyl = O=C(/C=C/c1ccc(O)c(O)c1)*
Columns and labels:
Assay in all cases: biochemical
Format in all cases: binding
SOCS6 = target: T1, SOCS6 (Homo sapiens, UniProt O14544); conditions: for remaining activity at 10 µM: read-out: percent of DMSO vehicle control
T1 construct: made in house; host or cells: HEK293 (transient transfection), unpurified extract
T1 sequence (O14544 1-535): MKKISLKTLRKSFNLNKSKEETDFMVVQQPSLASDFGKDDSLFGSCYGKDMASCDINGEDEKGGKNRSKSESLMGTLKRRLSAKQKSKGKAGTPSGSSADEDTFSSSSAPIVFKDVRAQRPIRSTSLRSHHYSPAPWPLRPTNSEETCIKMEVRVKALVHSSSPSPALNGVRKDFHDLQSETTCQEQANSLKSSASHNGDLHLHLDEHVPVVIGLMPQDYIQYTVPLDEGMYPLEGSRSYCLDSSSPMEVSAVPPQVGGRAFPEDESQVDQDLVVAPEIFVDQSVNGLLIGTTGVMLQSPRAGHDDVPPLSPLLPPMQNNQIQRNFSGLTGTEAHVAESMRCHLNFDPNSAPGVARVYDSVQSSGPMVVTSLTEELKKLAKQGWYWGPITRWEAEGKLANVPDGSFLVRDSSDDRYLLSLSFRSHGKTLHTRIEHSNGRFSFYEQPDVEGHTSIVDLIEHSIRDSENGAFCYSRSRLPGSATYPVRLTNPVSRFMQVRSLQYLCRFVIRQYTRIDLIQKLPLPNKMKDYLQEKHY

PIK3R2(SH2dom.N-term.) = target: T2, PIK3R2(SH2dom.N-term.) (Homo sapiens, UniProt O00459); conditions: for remaining activity at 10 µM: read-out: percent of DMSO vehicle control
T2 construct: SH2dom.N-term. denotes SH2 domain closest to N-terminus of protein; made in house; host or cells: HEK293 (transient transfection, unpurified extract)
T2 sequence (O00459 330-425 limits assumed): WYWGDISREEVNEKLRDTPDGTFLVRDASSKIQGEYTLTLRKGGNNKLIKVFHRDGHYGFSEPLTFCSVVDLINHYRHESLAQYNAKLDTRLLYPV

MIST = target: T3, MIST (Homo sapiens, UniProt Q7Z7G1); conditions: read-out: percent of DMSO vehicle control; for remaining activity at 10 µM: primary screen
T3 construct: the DNA-tagged SH2 domain concentrations used in this study were <0.1 nM; made in house; host or cells: HEK293 (transient transfection, unpurified extract)
T3 sequence (Q7Z7G1 309-419 limits assumed): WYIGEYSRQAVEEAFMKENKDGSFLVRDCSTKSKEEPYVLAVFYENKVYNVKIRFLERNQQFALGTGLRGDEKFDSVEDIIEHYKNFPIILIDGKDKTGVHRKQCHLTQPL

CRKL = target: T4, CRKL (Homo sapiens, UniProt P46109); conditions: read-out: percent of DMSO vehicle control; for remaining activity at 10 µM: primary screen
T4 construct: the DNA-tagged SH2 domain concentrations used in this study were <0.1 nM; made in house; host or cells: HEK293 (transient transfection; unpurified extract)
T4 sequence (P46109 14-102 limits assumed): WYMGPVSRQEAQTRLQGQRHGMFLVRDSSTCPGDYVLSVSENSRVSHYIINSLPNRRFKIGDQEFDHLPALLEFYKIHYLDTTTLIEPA

ABL2 = target: T5, ABL2 (Homo sapiens, UniProt P42684); conditions: for remaining activity at 10 µM: primary screen
T5 construct: the DNA-tagged SH2 domain concentrations used in this study were <0.1 nM; made in house; host or cells: HEK293 (transient transfection; unpurified extract)
T5 sequence (P42684 173-263 limits assumed): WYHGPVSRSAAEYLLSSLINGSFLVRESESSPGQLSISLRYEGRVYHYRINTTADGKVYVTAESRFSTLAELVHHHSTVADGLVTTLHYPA

PTPN6(SH2dom.C-term.) = target: T6, PTPN6(SH2dom.C-term.) (Homo sapiens, UniProt P29350); conditions: read-out: percent of DMSO vehicle control
T6 construct: SH2dom.C-term. denotes SH2 domain closest to C-terminus of protein; made in house; host or cells: HEK293 (transient transfection, unpurified extract)
T6 sequence (P29350 110-213 limits assumed): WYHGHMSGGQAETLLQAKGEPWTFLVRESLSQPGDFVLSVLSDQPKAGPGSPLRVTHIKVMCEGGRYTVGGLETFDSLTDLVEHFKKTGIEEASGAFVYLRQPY

FES = target: T7, FES (Homo sapiens, UniProt P07332); conditions: for remaining activity at 10 µM: read-out: percent of DMSO vehicle control
T7 construct: the DNA-tagged SH2 domain concentrations used in this study were <0.1 nM; made in house; host or cells: HEK293 (transient transfection; unpurified extract)
T7 sequence (P07332 460-549 limits assumed): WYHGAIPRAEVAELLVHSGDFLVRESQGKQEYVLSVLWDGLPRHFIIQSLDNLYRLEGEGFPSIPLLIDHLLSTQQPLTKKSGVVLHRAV

APS (SH2B2) = target: T8, APS (SH2B2) (Homo sapiens, UniProt O14492); conditions: for remaining activity at 10 µM: primary screen
T8 construct: the DNA-tagged SH2 domain concentrations used in this study were <0.1 nM; made in house; host or cells: HEK293 (transient transfection; unpurified extract)
T8 sequence (O14492 417-515 limits assumed): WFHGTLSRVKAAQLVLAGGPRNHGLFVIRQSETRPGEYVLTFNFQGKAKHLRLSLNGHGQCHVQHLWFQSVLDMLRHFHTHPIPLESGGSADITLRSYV

SOCS2 = target: T9, SOCS2 (Homo sapiens, UniProt O14508); conditions: for remaining activity at 10 µM: read-out: percent of DMSO vehicle control
T9 construct: made in house; host or cells: HEK293 (transient transfection), unpurified extract
T9 sequence (O14508 1-198): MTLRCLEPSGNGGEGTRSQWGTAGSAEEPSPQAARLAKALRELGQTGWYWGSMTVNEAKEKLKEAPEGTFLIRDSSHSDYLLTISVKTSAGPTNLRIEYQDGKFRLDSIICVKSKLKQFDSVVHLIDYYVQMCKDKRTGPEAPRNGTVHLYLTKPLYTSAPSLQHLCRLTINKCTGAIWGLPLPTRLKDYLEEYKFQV

NCK1 = target: T10, NCK1 (Homo sapiens, UniProt P16333); conditions: for remaining activity at 10 µM: read-out: percent of DMSO vehicle control
T10 construct: the DNA-tagged SH2 domain concentrations used in this study were <0.1 nM; made in house; host or cells: HEK293 (transient transfection, unpurified extract)

CBLC = target: T11, CBLC (Homo sapiens, UniProt Q9ULV8); conditions: for remaining activity at 10 µM: primary screen
T11 construct: the DNA-tagged SH2 domain concentrations used in this study were <0.1 nM; made in house; host or cells: HEK293 (transient transfection; unpurified extract)
T11 sequence (Q9ULV8 219-321 limits assumed): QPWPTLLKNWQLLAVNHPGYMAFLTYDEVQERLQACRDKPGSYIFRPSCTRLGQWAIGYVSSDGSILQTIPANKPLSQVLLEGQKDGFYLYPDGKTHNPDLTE

STAT4 = target: T12, STAT4 (Homo sapiens, UniProt Q14765); conditions: for percent of DMSO vehicle control: primary screen, 10 μM
T12 construct: made in house; host or cells: HEK293 (transient transfection), unpurified extract
T12 sequence (Q14765 1-748): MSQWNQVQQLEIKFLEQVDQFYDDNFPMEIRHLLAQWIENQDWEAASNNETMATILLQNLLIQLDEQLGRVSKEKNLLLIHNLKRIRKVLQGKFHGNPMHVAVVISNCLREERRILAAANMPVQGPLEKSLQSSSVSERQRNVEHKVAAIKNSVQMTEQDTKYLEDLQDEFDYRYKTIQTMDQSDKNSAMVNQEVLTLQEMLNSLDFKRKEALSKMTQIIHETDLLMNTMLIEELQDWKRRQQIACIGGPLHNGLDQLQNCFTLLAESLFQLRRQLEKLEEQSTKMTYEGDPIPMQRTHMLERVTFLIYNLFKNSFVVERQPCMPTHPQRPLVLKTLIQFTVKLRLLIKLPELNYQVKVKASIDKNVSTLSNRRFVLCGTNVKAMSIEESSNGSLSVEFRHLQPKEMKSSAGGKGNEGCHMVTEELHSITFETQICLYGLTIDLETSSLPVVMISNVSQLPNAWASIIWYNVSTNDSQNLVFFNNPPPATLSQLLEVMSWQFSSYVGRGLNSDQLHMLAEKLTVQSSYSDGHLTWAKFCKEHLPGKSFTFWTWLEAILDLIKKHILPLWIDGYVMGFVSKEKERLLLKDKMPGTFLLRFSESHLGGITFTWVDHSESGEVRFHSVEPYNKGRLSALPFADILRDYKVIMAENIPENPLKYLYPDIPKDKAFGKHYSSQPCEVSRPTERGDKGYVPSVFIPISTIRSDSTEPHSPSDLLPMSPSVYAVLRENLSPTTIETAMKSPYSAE

HSH2D = target: T13, HSH2D (Homo sapiens, UniProt Q96JZ2); conditions: for remaining activity at 10 µM: primary screen
T13 construct: the DNA-tagged SH2 domain concentrations used in this study were <0.1 nM; made in house; host or cells: HEK293 (transient transfection, unpurified extract)
T13 sequence (Q96JZ2 34-125 limits assumed): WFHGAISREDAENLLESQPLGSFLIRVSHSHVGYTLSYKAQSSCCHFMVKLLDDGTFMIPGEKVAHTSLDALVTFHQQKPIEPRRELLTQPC

[1] = read-out: percent of DMSO vehicle control

## O=C(CCl)Nc1cccc(CNC(=O)[C@H](Cc2ccc(OP(=O)(O)O)cc2)NC(=O)Cc2ccc(F)cc2)c1 [MN551]
SOCS6; primary screen, 10 μM
  remaining activity at 10 µM: 65.2 ± 0.1%
PIK3R2(SH2dom.N-term.); primary screen, 10 μM
  remaining activity at 10 µM: 101%
MIST
  remaining activity at 10 µM: 102%
CRKL
  remaining activity at 10 µM: 202%
ABL2; [1]
  remaining activity at 10 µM: 94.6 ± 1.6%
PTPN6(SH2dom.C-term.); primary screen, 10 μM
  remaining activity at 10 µM: 147%
FES; primary screen, 10 μM
  remaining activity at 10 µM: 82.1 ± 4.3%
APS (SH2B2); [1]
  remaining activity at 10 µM: 94.2 ± 3.2%
SOCS2; dose-response, read-out: KD
  Kd: 400 nM
SOCS2; primary screen, 10 μM
  remaining activity at 10 µM: 0%
NCK1; primary screen, 10 μM
  remaining activity at 10 µM: 67.4 ± 5.3%
CBLC; [1]
  remaining activity at 10 µM: 43 ± 3.8%
STAT4; dose-response
  KD: No Hit
STAT4
  percent of DMSO vehicle control: 22±0.8%
HSH2D; dose-response, read-out: KD
  Kd: 8700 nM
HSH2D; [1]
  remaining activity at 10 µM: 3 ± 0.2%

## CC[C@H](C)[C@H](NC(=O)[C@H](CCC(=O)O)NC(=O)[C@H](CCC(=O)O)NC(=O)[C@H](Cc1ccc(OP(=O)(O)O)cc1)NC(=O)/C=C/c1ccc(O)c(O)c1)C(=O)N[C@@H](CCC(=O)O)C(=O)O [Caffeic acid-pYEEIE] (Caffeoyl-[pY]EEIE-OH)
SOCS6
  Kd: 1900 ± 240 nM
  remaining activity at 10 µM: 8.2 ± 0.1%
PIK3R2(SH2dom.N-term.)
  Kd: 180 ± 52 nM
  remaining activity at 10 µM: 0%
MIST
  percent of DMSO vehicle control at 10 µM: 72.9 ± 1.4%
CRKL
  percent of DMSO vehicle control at 10 µM: 42.1 ± 6%
ABL2
  Kd: 1400 ± 360 nM
ABL2; [1]
  percent of DMSO vehicle control at 10 µM: 0.7 ± 0.4%
PTPN6(SH2dom.C-term.)
  remaining activity at 10 µM: 114 ± 11%
FES
  Kd: 24 ± 4.9 nM
  remaining activity at 10 µM: 2.2 ± 0.4%
APS (SH2B2)
  Kd: 2300 ± 450 nM
APS (SH2B2); [1]
  percent of DMSO vehicle control at 10 µM: 2.2 ± 0.3%
SOCS2
  Kd: 1300 ± 880 nM
  remaining activity at 10 µM: 2.6 ± 0.1%
NCK1
  Kd: 97 ± 71 nM
  remaining activity at 10 µM: 0.8 ± 0.1%
CBLC
  Kd: 37 ± 23 nM
CBLC; [1]
  percent of DMSO vehicle control at 10 µM: 0.1%
STAT4
  Kd: 4400 ± 370 nM
  percent of DMSO vehicle control: 8.8±0.4%
HSH2D; [1]
  percent of DMSO vehicle control at 10 µM: 80.3 ± 18.6%

## C/C(=C\C(=O)N[C@H](C(=O)N1CCC[C@H]1C(=O)N(c1ccccc1)c1ccc(I)cc1)C(C)(C)C)c1ccc(OP(=O)(O)O)cc1 [STAT6-IN-1]
SOCS6; primary screen, 10 μM
  remaining activity at 10 µM: 44.1 ± 2.1%
PIK3R2(SH2dom.N-term.); primary screen, 10 μM
  remaining activity at 10 µM: 48.2 ± 5.7%
MIST
  remaining activity at 10 µM: 88.7 ± 5.9%
CRKL
  remaining activity at 10 µM: 42.4 ± 0.9%
ABL2; [1]
  remaining activity at 10 µM: 98.1 ± 4.2%
PTPN6(SH2dom.C-term.); primary screen, 10 μM
  remaining activity at 10 µM: 45.8 ± 7.8%
FES; primary screen, 10 μM
  remaining activity at 10 µM: 66.3 ± 6.4%
APS (SH2B2); [1]
  remaining activity at 10 µM: 45.3 ± 5.2%
SOCS2; dose-response, read-out: KD
  Kd: 1500 ± 870 nM
SOCS2; primary screen, 10 μM
  remaining activity at 10 µM: 0%
NCK1; dose-response
  KD: No Hit
NCK1; primary screen, 10 μM
  remaining activity at 10 µM: 10.6 ± 2.6%
CBLC; dose-response, read-out: KD
  Kd: 1800 ± 490 nM
CBLC; [1]
  remaining activity at 10 µM: 3.3 ± 0.1%
STAT4; dose-response, read-out: KD
  Kd: 220 ± 67 nM
STAT4
  percent of DMSO vehicle control: 0.0±0.0%
HSH2D; dose-response
  KD: No Hit
HSH2D; [1]
  remaining activity at 10 µM: 14.6 ± 0.1%

From publication PMC12951562, “SH2scan: Mapping SH2 Domain-Ligand Binding Selectivity for Inhibitors and Degraders” (Journal of Medicinal Chemistry, 2026)
